Drawing on patent publication US20230203060A1 (GENFLEET THERAPEUTICS (SHANGHAI) INC., priority 2020, published 2023), this text covers IC50 for nine compounds.

Experiment [1] relates to phosphorylated ERK downstream of KRAS G12C in MIA PaCa2 cells. Nature of the experiment: Cell p-ERK detection experiment (HTRF) in MIA PaCa2. In kind it is cell-based, human. To be noted: Homo sapiens, MIA PaCa-2, 2 h, MIA PaCa2 cells, 2 hours with compound, Advance ERK phospho-T202/Y204 HTRF kit; read-out: p-ERK IC50. An excerpt: Raw materials and instruments: MIA PaCa-2 purchased from ATCC; article number: CRL-1420; batch number: 63143594; DMEM purchased from Gibco; article number: 11995-065; batch number: 2186878; FBS purchased from Gibco; article number: 10099-141; batch number: 2109290CP; Horse serum purchased from Gibco; article number: 16050-122; batch number: 1818976; Trypsin-EDTA purchased from Gibco; article number: 25200-072; batch number: 2085552; PS purchased from Gibco; article number: 15140-122; batch number: 2145451; DMSO purchased from VWR AMRESCO; article number: 0231-500ML; batch number: 0457C072; 96-well cell culture plate purchased from Corning; article number: 3599; batch number: 22718601; white opaque 96-well plate purchased from Cisbio; article number: 66PL96025; batch number: N°05; Advance ERK phospho-T202/Y204 kit purchased from Cisbio; article number: 64AERPEH; batch number: 11D; microplate reader purchased from PerkinElmer; model: Envision MLD2105-0020; equipment number 1050369.
MIA PaCa2 was a KRAS G12C mutant human pancreatic cancer cell line cultured in 10% FBS+2.5% Horse serum DMEM culture medium. Cells at logarithmic growth stage were taken, digested with trypsin-EDTA, then collected and counted, and 2.5E4 cells were inoculated in a 96-well cell culture plate and cultured overnight. A 3.16-fold gradient concentration stock solution of 1000× compound was prepared with DMSO, and diluted 200-fold to 5× compound stock solution with culture medium. On the second day after cell inoculation, 5× compound stock solution was added to each cell culture well, with a final concentration of 1× and a DMSO content of 0.1%. DMSO was used as experimental control (control). After the compound was added and cultured for two hours, the residual culture medium was removed. 50 μL of cell lysate (from Advance ERK phospho-T202/Y204 kit, the same below) was added to each well, mixed well and incubated for 30 minutes, and then 16 μL of the mixed solution was transferred to a white opaque 96-well plate, and 16 μL of cell lysate was added to the blank wells. After the transfer was completed, 4 μL of p-ERK HTRF antibody (from Advance ERK phospho-T202/Y204 kit) mixture was added to each well, incubated for 4 hours, and the fluorescence value was read with the microplate reader. The inhibition rate of the compound IR (%)=(RLU control -RLU compound)/(RLU control-RLU blank)×100% was calculated. The gradient dilution concentration of the compound and the corresponding cell proliferation inhibition rate were fitted by Prism 8 four-parameter method, and the IC50 value was calculated. The compounds prepared in the above embodiments of the present disclosure have inhibitory activity of 0.0001 μM to 1 μM on the phosphorylated ERK level downstream of the cell channel of KRAS G12C protein mutant; some compounds have inhibitory activity of 0.001 μM to 1 μM or 0.001 μM to 0.5 μM on phosphorylated ERK level downstream of cell channel of KRAS G12C protein mutant.
On the technique in general: TR-FRET usually uses a lanthanide donor and a delayed reading to cut background.

Experiment [2] addresses T1, KRAS G12C (Homo sapiens, UniProt P01116, G12C).
T1 construct: purchased Reactionbiology
Nature of the experiment: KRAS G12C NEA-HTRF experiment (SOS1-catalyzed displacement of GDP by GTP). Type of experiment: biochemical. An excerpt: Raw materials and instruments: KRAS G12C (his-tag) purchased from Reactionbiology; batch number 3496; SOS1 purchased from Reactionbiology; batch number: 3501; GTP purchased from Sigma; article number: G8877; batch number: SLBV1450; Tris-HC1 purchased from Sigma; EDTA purchased from absin; article number: abs42017668; batch number: JE20; NaCl purchased from Sigma; article number: 55886; batch number: SLBW4193; MgCl2 purchased from Shyuanye; article number: R21455; batch number: L07S9G69806; HEPES purchased from Life Technologies; article number: 15630-080; batch number: 2037042; DTT purchased from Thermo Fisher; article number: R0862; batch number: 00608918; Triton X-100 purchased from Sigma; article number: T8787-100 ML; batch number: SLBW7103; DY647-labeled GDP purchased from Jena Bioscience; article number: NU-840-647P1; batch number: BM019-045; Anti-6H1S-Tb purchased from Cisbio; article number: 61H12TLA; batch number: 13A; Bradford Assay Kit purchased from Thermo Fisher; article number: 23246; batch number: UG287474; white opaque 96-well plate purchased from Cisbio; article number: 66PL96025; batch number: N°06; NAP-5 column purchased from GE Healthcare; article number: 17085301; batch number: 16995164; mircoplate reader purchased from PerkinElmer; model: Envision MLD2105-0020; equipment number 1050369. The effect of compounds on SOS1-catalyzed displacement of GDP by GTP on KRAS protein was examined using a homogeneous time-resolved fluorescence (HTRF) method. 30 μM 6×his-tagged KRAS G12C recombinant protein was incubated with 80 μM fluorescent dye DY647-labeled GDP in labeling buffer (1 mM DTT, 7.5 mM EDTA, 25 mM Tris-HCl, 45 mM NaCl) at 20° C. in the dark for 2 hours, purified using NAP-5 column, and then protein quantification was performed with Bradford Assay Kit after purification to determine the concentration of KRAS […] 3.16-fold gradient concentration stock solution of 1000× compound was prepared with DMSO, and diluted 250-fold to 4× compound stock solution with reaction buffer (40 mM HEPES, 10 mM MgCl2, 1 mM DTT, 0.002% Triton X-100). KRAS G12C-GDP/Tb working solution (40 nM KRAS […] Tb) and SOS1/GTP working solution (0.2 μM SOS1, 200 μM GTP) were prepared using the reaction buffer. A white opaque 96-well plate was taken, and 5 μL of 4× compound stock solution and 10 μL of KRAS G12C-GDP/Tb working solution were added to each well. 5 μL of reaction buffer instead of 4x compound stock solution was used in the control well. After incubation in the dark for 15 minutes at 20° C., 5μL of SOS1/GTP working solution was added thereto, and the fluorescence value (excitation wavelength: 320 nm, emission wavelength: 615 nm and 665 nm) was read after incubating at 20° C. in the dark for 2 hours. Another T0 group was set up with 10 μL reaction buffer+10 μL KRAS G12C-GDP/Tb working solution, and the fluorescence value was read directly by the microplate reader. The fluorescence signal ratio RLU=(665 nm signal/615 nm signal)×10^4; and the compound inhibition rate IR (%)=(RLUcompound-RLUcontrol)/(RLUT0-RLUcontrol)×100% were calculated. The IC50 value was calculated by fitting the gradient dilution concentration of compound and the corresponding inhibition rate with the four-parameter method. The NEA activity of the compounds prepared in the above embodiments of the present disclosure was 0.0001 μM to 1 μM; the inhibitory activity of some compounds on KRAS G12C mutant MIA PaCa-2 cells was 0.001 μM to 0.5 μM or 0.001 μM to 0.1 μM.

The test system of experiment [3] is KRAS G12C mutant NCI-H358 cells. Nature of the experiment: Cell proliferation inhibition experiment, 3D spheroid, CellTiter-Glo, NCI-H358. In kind it is cell-based, human. The conditions noted are these: Homo sapiens, NCI-H358, 120 h, NCI-H358 (KRAS G12C mutant) 3D spheroid, 5 days with compound, CellTiter-Glo; read-out: H358 IC50. In outline:
(§1)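 Spheroids grown overnight from 800 H358 or 400 A549 cells were treated for 5 days with serially diluted compound (3.16-fold, 0.1% DMSO, 2% FBS). ATP-based luminescence gave IC50.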
(In general: ATP-based viability assays read luminescence as a measure of living cells.)

The test system of experiment [4] is A549 cells (KRAS G12S mutant). In words: Cell proliferation inhibition experiment, 3D spheroid, CellTiter-Glo, A549. Type of experiment: cell-based, human. The conditions noted are these: Homo sapiens, A549, 120 h, A549 (KRAS G12S mutant) 3D spheroid, 5 days with compound, CellTiter-Glo; read-out: A549 IC50. In outline: as §1

T1 sequence (P01116 1-188 isoform P01116-2 G12C): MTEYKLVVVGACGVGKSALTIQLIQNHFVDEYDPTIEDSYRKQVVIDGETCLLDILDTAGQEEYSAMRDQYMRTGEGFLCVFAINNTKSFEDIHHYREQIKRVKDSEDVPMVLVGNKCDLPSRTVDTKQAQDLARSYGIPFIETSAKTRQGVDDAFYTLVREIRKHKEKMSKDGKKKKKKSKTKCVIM

As usually defined, the IC50 is the concentration that inhibits the measured activity by half. On to `C=CC(=O)N1CCN2C(=O)c3c(N4CC(N5CC(C(F)(F)F)C5)CC4(C)C)nc(-c4ccccc4F)c(Cl)c3OC[C@H]2C1` (single isomer, unassigned) [Z608-2], for which the figures for the IC50 in experiment [1] and in experiment [2] were 286 nM and 75.8 nM, respectively.

For `C=CC(=O)N1CCN2C(=O)c3c(N4C[C@H](NCC(F)(F)F)CC4(C)C)nc(-c4ccccc4F)c(Cl)c3OC[C@H]2C1` (single isomer, unassigned) [Z662-2], the figures for the IC50 in experiment [1] and in experiment [2] were 586 nM and 235 nM, respectively.

Consider `C=CC(=O)N1CCN2C(=O)c3c(Oc4ccccc4C(C)C)nc(-c4c(O)cccc4F)c(Cl)c3OC[C@H]2C1` [Z18, (6aR)-8-acryloyl-4-chloro-3-(2-fluoro-6-hydroxyphenyl)-1-(2-isopropylphenoxy)-6,6a,7,8,9,10-hexahydro-12H-pyrazino[2,1-c]pyrido[3,4-f][1,4]oxazepin-12-one], for which the IC50 turned out to be 7 nM in experiment [3], 8680 nM in experiment [4] and 73 nM in experiment [1].

For the compound `C=CC(=O)N1CCN2C(=O)c3c(N4CCCC4(C)C)nc(-c4ccccc4F)c(Cl)c3OC[C@H]2C1` [Z147, (R)-8-acryloyl-4-chloro-1-(2,2-dimethylpyrrolidin-1-yl)-3-(2-fluorophenyl)-6,6a,7,8,9,10-hexahydro-12H-pyrazino[2,1-c]pyrido[3,4-f][1,4]oxazepin-12-one], the IC50 was 22 nM in experiment [3] and 180 nM in experiment [1].

On to `C=CC(=O)N1CCN2C(=O)c3c(N4CCN5CCC[C@@H]5C4)nc(-c4c(O)cccc4F)c(Cl)c3OC[C@H]2C1` [Z317-2, (6aR)-8-acryloyl-4-chloro-3-(2-fluoro-6-hydroxyphenyl)-1-((R)-hexahydropyrrolo[1,2-a]pyrazin-2(1H)-yl)-6,6a,7,8,9,10-hexahydro-12H-pyrazino[2,1-c]pyrido[3,4-f][1,4]oxazepin-12-one], for which the figures for the IC50 in experiment [3] and in experiment [1] were 23.7 nM and 162 nM, respectively.

`C=CC(=O)N1CCN2C(=O)c3c(N4CCN5CCCC5(C)C4)nc(-c4c(O)cccc4F)c(Cl)c3OC[C@H]2C1` (stereo partly drawn) [Z339, (6aR)-8-acryloyl-4-chloro-3-(2-fluoro-6-hydroxyphenyl)-1-(8a-methyloctahydropyrrolo[1,2-c]pyrazin-6 (2H)-one-1-yl)-6,6a,7,8,9,10-hexahydro-12H-pyrazino[2,1-c]pyrido[3,4-f][1,4]oxazepin-12-one]: the IC50 in experiment [3] turned out to be 29 nM; in experiment [1], 143 nM.

For `C=CC(=O)N1CCN2C(=O)c3c(N4C[C@H](C)N(C)C[C@@H]4C)nc(-c4ccccc4F)c(Cl)c3OC[C@H]2C1` [Z483, (R)-8-acryloyl-4-chloro-3-(2-fluorophenyl)-1-((2S,5S)-2,4,5-trimethylpiperazin-1-yl)-6,6a,7,8,9,10-hexahydro-12H-pyrazino[2,1-c]pyrido[3,4-f][1,4]oxazepin-12-one], the IC50 in experiment [1] is 260 nM; in experiment [2], 340 nM.

For the compound `C=CC(=O)N1CCN2C(=O)c3c(N4C[C@@H](N5CC(F)C5)CC4(C)C)nc(-c4ccccc4F)c(F)c3OC[C@H]2C1` [Z654-1, (R)-8-acryloyl-4-fluoro-1-((S)-4-(3-fluoroazetidin-1-yl)-2,2-dimethylpyrrolidin-1-yl)-3-(2-fluorophenyl)-6,6a,7,8,9,10-hexahydro-12H-pyrazino[2,1-c]pyrido[3,4-f][1,4]oxazepin-12-one], the IC50 is 1720 nM in experiment [1] and 1820 nM in experiment [2].

As to `C=CC(=O)N1CCN2C(=O)c3c(N4CC(N(C)CC)CC4(C)C)nc(-c4ccccc4F)c(Cl)c3OC[C@H]2C1` (stereo partly drawn) [Z657, (6aR)-8-acryloyl-4-chloro-1-(4-(methylethylamine)-2,2-dimethylpyrrolidin-1-yl)-3-(2-fluorophenyl)-6,6a,7,8,9,10-hexahydro-12H-pyrazino[2,1-c]pyrido[3,4-f][1,4]oxazepin-12-one], the results for the IC50 in experiment [1] and in experiment [2] were 93 nM and 31.5 nM, respectively.
